This note sets out measurements from patent publication US20040248880A1, “1,2,3,4,5,6-Hexahydroazepino[4,5-B]indoles containing arylsulfones at the 9-position” (priority 2003, published 2004).

Each structure is given as a SMILES string. Where a name gives a salt, the structure may show the parent alone. Bounds are passed on as bounds.

Consider `Cl.O=S(=O)(c1ccccc1)c1ccc2[nH]c3c(c2c1)CCNCC3`, for which the melting point was 290 to 291.5 °C.

Consider `Cl.Cn1c2c(c3cc(S(=O)(=O)c4ccccc4)ccc31)CCNCC2`, for which the melting point is greater than 300 °C.

Take `Cl.O=S(=O)(c1ccc(F)c(F)c1)c1ccc2[nH]c3c(c2c1)CCNCC3`: the melting point was 320 °C (dec.).

With `Cl.O=S(=O)(c1cc(F)cc(F)c1)c1ccc2[nH]c3c(c2c1)CCNCC3`, the melting point is 313 to 315 °C (dec.).

In the case of `Cl.Cn1c2c(c3cc(S(=O)(=O)c4cc(F)cc(F)c4)ccc31)CCNCC2`, the melting point is 337 to 340 °C (dec.).

As to `CN1CCc2[nH]c3ccc(S(=O)(=O)c4ccccc4)cc3c2CC1`, the melting point was 150 °C (dec.).

Regarding `COc1cccc(S(=O)(=O)c2ccc3[nH]c4c(c3c2)CCNCC4)c1.Cl`, the melting point was 232 to 235 °C (dec.).

In the case of `Cl.O=S(=O)(c1ccc(C(F)(F)F)cc1)c1ccc2[nH]c3c(c2c1)CCNCC3`, the melting point is 278 to 279 °C (dec.).

As to `CCn1c2c(c3cc(S(=O)(=O)c4ccc(F)cc4)ccc31)CCNCC2.Cl`, the melting point was 227 to 233 °C (dec.).

Consider `Cn1c2c(c3cc(S(=O)(=O)c4ccc(OCCO)cc4)ccc31)CCNCC2` (as salt: hydrochloride) [Example 17, 9-[(4-(2-Hydroxyethoxy)phenyl)sulfonyl]-6-methyl-1,2,3,4,5,6-hexahydroazepino[4,5-b]indole hydrochloride], for which the melting point was 285 to 287 °C (dec.).

For the compound `O=S(=O)(c1ccc(F)cc1)c1ccc2[nH]c3c(c2c1)CCNCC3` [Example 2, 9-[(4-Fluorophenyl)sulfonyl]-1,2,3,4,5,6-hexahydroazepino[4,5-b]indole], the melting point is 168 °C (dec.).

In the case of `Cc1ccc(S(=O)(=O)c2ccc3[nH]c4c(c3c2)CCNCC4)cc1` [Example 3, 9-[(4-Methylphenyl)sulfonyl]-1,2,3,4,5,6-hexahydroazepino[4,5-b]indole], the melting point is 125 °C (dec.).

For the compound `COc1ccc(S(=O)(=O)c2ccc3[nH]c4c(c3c2)CCNCC4)cc1` [Example 4, 9-[(4-Methoxyphenyl)sulfonyl]-1,2,3,4,5,6-hexahydroazepino[4,5-b]indole], the melting point was 139 °C (dec.).

With `O=S(=O)(c1cccc(F)c1)c1ccc2[nH]c3c(c2c1)CCNCC3` [Example 5, 9-[(3-Fluorophenyl)sulfonyl]-1,2,3,4,5,6-hexahydroazepino[4,5-b]indole], the melting point is 153 to 156 °C.

With `CCn1c2c(c3cc(S(=O)(=O)c4ccccc4)ccc31)CCNCC2` [Example 8, 6-Ethyl-9-(phenylsulfonyl)-1,2,3,4,5,6-hexahydroazepino[4,5-b]indole], the melting point is 224 °C (dec.).

In turn, `CN1CCc2c(n(C)c3ccc(S(=O)(=O)c4ccccc4)cc23)CC1` [Example 18, 3,6-Dimethyl-9-(phenylsulfonyl)-1,2,3,4,5,6-hexahydroazepino[4,5-b]indole] displayed a melting point of 283 to 286 °C.

As to `CC(C)N1CCc2c(n(C)c3ccc(S(=O)(=O)c4ccc(F)cc4)cc23)CC1` [Example 20, 9-[(4-fluorophenyl)sulfonyl]-3-isopropyl-6-methyl-1,2,3,4,5,6-hexahydroazepino[4,5-b]indole], the melting point is 282 to 283 °C (dec.).
